Consider 2 compounds from patent US11278582B2, “Compositions containing plant extracts and applications thereof” (TCI CO., LTD., priority 2017, dated 2022).

This assay has as its system adipocytes differentiated from OP9 mouse stromal cell line (ATCC CRL-2749). Put plainly: Oil red O staining of the fat content of adipocytes treated with plant extracts or combinations. It counts as cell-based. As to conditions: for Relative fat content: 7-10 days, relative to control group (100%).

Method: The neutral fat content of cells was determined by oil red O staining. Prior to staining, the cells were washed twice with PBS and then fixed with 10% formaldehyde at room temperature for 30 minutes. The fixed cells were washed twice with PBS and rinsed with 60% isopropanol for 1 minute. Thereafter, the cells were stained with an oil red O staining solution (1.8 mg/ml oil red O dissolved in 60% isopropanol aqueous solution) for 1 hour, and then treated with 60% isopropanol for 5 seconds to remove excess dye. Lastly, 100% isopropanol was added to the cells and incubated with shaking for 10 minutes to dissolve the intracellular dye, and the absorbance of the cell suspension at 510 nm was measured using an ELISA (enzyme-linked immunosorbent assay) reader (BioTek). The statistical significance of differences between data was determined by Student's t-test using the Excel software.
Briefly, OP9 cells were seeded at 8×10^4 cells/well in 24-well culture plates, where each well contained 500 μl of pre-adipocyte expansion medium (90% DMEM, 20% FBS, and 1% penicillin/streptomycin), and cultured at 37° C. for 7 days. The medium was refreshed every 3 days during cell culture with adipocyte differentiation medium (90% DMEM medium, 20% FBS, and 1% penicillin/streptomycin). After 7 days, complete differentiation into adipocytes were confirmed by examining oil droplets formed in the cells using a microscope (ZEISS; at 400× magnification). Thereafter, each of the plant extracts or each of the compositions containing plant extracts, listed in TABLE 1, was added to the cells, which were then cultured at 37° C. for 7-10 days, during which the adipocyte differentiation medium was refreshed every 3 days. Finally, the medium was removed, and the cells of each group were washed with PBS and subjected to oil red O staining for determination of the fat content. The relative fat content is a ratio of the cellular fat content of the experimental group relative to that of the control group (expressed as a percentage). […]

For the compound `CC(C)=CCC/C(C)=C/C=C/C(C)=C/C=C/C(C)=C/C=C/C=C(C)/C=C/C=C(C)/C=C/C=C(\C)CCC=C(C)C` [Lycopene], under “single treatment 0.015625 mg/ml”, the Relative fat content is recorded as 73.34%.
`CC1=C(/C=C/C(C)=C/C=C/C(C)=C/C=C/C=C(C)/C=C/C=C(C)/C=C/C2=C(C)CCCC2(C)C)C(C)(C)CCC1` [β-carotene]: where the note is “single treatment 0.5 mg/ml”, the Relative fat content amounted to 99.00%. For the same compound, under “sole treatment, concentrations as in TABLE 1, Student's t-test”, the “Change of the fat content of adipocytes compared to the control group (in words)” value is “did not significantly reduce the fat content”.
